# Paper PMC5218480 (PLoS ONE, 2017)
# System: MV-4-11 cells
# Assay: Gene expression microarray analysis (Affymetrix PrimeView) and GSEA
# Assay type: cell-based, human
# Parameters: RFU PODN (11730768_x_at) / Fold change /veh PODN (11730768_x_at) / RFU LINC00158 (11744669_a_at) / Fold change /veh LINC00158 (11744669_a_at) / RFU DUSP10 (11751237_a_at) / Fold change /veh DUSP10 (11751237_a_at) / RFU ID3 (11757404_x_at) / Fold change /veh ID3 (11757404_x_at) / RFU PLEKHG5 (11737974_s_at) / Fold change /veh PLEKHG5 (11737974_s_at) / RFU LRRC4B (11730491_at) / Fold change /veh LRRC4B (11730491_at) / RFU GIMAP4 (11747438_a_at) / Fold change /veh GIMAP4 (11747438_a_at) / RFU KRT8 (11758183_x_at) / Fold change /veh KRT8 (11758183_x_at) / RFU CNN1 (11734310_a_at) / Fold change /veh CNN1 (11734310_a_at) / RFU VPS37D (11726825_at) / Fold change /veh VPS37D (11726825_at) / RFU C10orf10 (11716522_x_at) / Fold change /veh C10orf10 (11716522_x_at) / RFU KIR2DL2 /// KIR2DL4 /// KIR2DL5A /// KIR2DL5B /// KIR2DS1 /// KIR2DS2 /// KIR2DS3 /// KIR2DS4 /// KIR3DL3 /// KIR3DL3 /// KIR3DS1 (11738374_at) / Fold change /veh KIR2DL2 /// KIR2DL4 /// KIR2DL5A /// KIR2DL5B /// KIR2DS1 /// KIR2DS2 /// KIR2DS3 /// KIR2DS4 /// KIR3DL3 /// KIR3DL3 /// KIR3DS1 (11738374_at) / RFU C1QL1 (11718748_at) / Fold change /veh C1QL1 (11718748_at) / RFU TMPRSS4 (11747572_a_at) / Fold change /veh TMPRSS4 (11747572_a_at) / RFU HAMP (11756126_x_at) / Fold change /veh HAMP (11756126_x_at) / RFU RNFT2 (11725882_a_at) / Fold change /veh RNFT2 (11725882_a_at) / RFU NR4A2 (11747474_a_at) / Fold change /veh NR4A2 (11747474_a_at) / RFU ABCC12 (11746883_a_at) / Fold change /veh ABCC12 (11746883_a_at) / RFU TMEM136 (11760407_x_at) / Fold change /veh TMEM136 (11760407_x_at) / RFU CLDN22 /// WWC2 (11732394_at) / Fold change /veh CLDN22 /// WWC2 (11732394_at) / RFU HLA-DPB1 (11760878_x_at) / Fold change /veh HLA-DPB1 (11760878_x_at) / RFU SPINT1 (11716480_a_at) / Fold change /veh SPINT1 (11716480_a_at) / RFU GAP43 (11754022_s_at) / Fold change /veh GAP43 (11754022_s_at) / RFU A4GNT (11735810_at) / Fold change /veh A4GNT (11735810_at) / RFU PRB3 (11715151_x_at) / Fold change /veh PRB3 (11715151_x_at) / RFU TUBB4B (11761932_at) / Fold change /veh TUBB4B (11761932_at) / RFU CAPN14 (11732068_a_at) / Fold change /veh CAPN14 (11732068_a_at) / RFU TMCC2 (11721928_a_at) / Fold change /veh TMCC2 (11721928_a_at) / RFU IRGQ (11745062_a_at) / Fold change /veh IRGQ (11745062_a_at) / RFU FAM174B (11720279_a_at) / Fold change /veh FAM174B (11720279_a_at) / RFU TMPRSS4 (11748680_a_at) / Fold change /veh TMPRSS4 (11748680_a_at) / RFU FAM212B (11763350_a_at) / Fold change /veh FAM212B (11763350_a_at) / RFU PLEKHG5 (11743358_a_at) / Fold change /veh PLEKHG5 (11743358_a_at) / RFU ZSCAN30 (11745921_a_at) / Fold change /veh ZSCAN30 (11745921_a_at) / RFU CMKLR1 (11741424_a_at) / Fold change /veh CMKLR1 (11741424_a_at) / RFU LOC101060620 /// MAPK8IP1 (11723275_at) / Fold change /veh LOC101060620 /// MAPK8IP1 (11723275_at) / RFU SPTSSB (11747773_x_at) / Fold change /veh SPTSSB (11747773_x_at) / RFU PRSS12 (11739890_at) / Fold change /veh PRSS12 (11739890_at) / RFU BIN1 (11741810_x_at) / Fold change /veh BIN1 (11741810_x_at) / RFU WNT11 (11732464_a_at) / Fold change /veh WNT11 (11732464_a_at) / RFU C10orf10 (11716521_a_at) / Fold change /veh C10orf10 (11716521_a_at) / RFU C5orf56 (11738089_at) / Fold change /veh C5orf56 (11738089_at) / RFU CYB561 (11721691_x_at) / Fold change /veh CYB561 (11721691_x_at) / RFU ANKRD19P (11752326_a_at) / Fold change /veh ANKRD19P (11752326_a_at) / RFU OR2T12 /// OR2T33 /// OR2T8 (11738714_s_at) / Fold change /veh OR2T12 /// OR2T33 /// OR2T8 (11738714_s_at) / RFU VCAN (11748164_a_at) / Fold change /veh VCAN (11748164_a_at) / RFU JSRP1 (11732532_at) / Fold change /veh JSRP1 (11732532_at) / RFU KRTAP10-11 (11738290_x_at) / Fold change /veh KRTAP10-11 (11738290_x_at) / RFU MYO3A (11730013_a_at) / Fold change /veh MYO3A (11730013_a_at) / RFU EBF3 (11725865_a_at) / Fold change /veh EBF3 (11725865_a_at) / RFU CAMK2N1 (11719241_x_at) / Fold change /veh CAMK2N1 (11719241_x_at) / RFU C5orf56 (11738088_a_at) / Fold change /veh C5orf56 (11738088_a_at) / RFU OLFML3 (11715873_a_at) / Fold change /veh OLFML3 (11715873_a_at) / RFU LOC100653217 /// NTM (11731650_a_at) / Fold change /veh LOC100653217 /// NTM (11731650_a_at) / RFU MAPK11 (11762145_a_at) / Fold change /veh MAPK11 (11762145_a_at) / RFU FIZ1 (11724087_x_at) / Fold change /veh FIZ1 (11724087_x_at) / RFU OASL (11726364_x_at) / Fold change /veh OASL (11726364_x_at) / RFU SOX15 (11748057_x_at) / Fold change /veh SOX15 (11748057_x_at) / RFU CD79A (11719716_a_at) / Fold change /veh CD79A (11719716_a_at) / RFU HIST1H1D (11736915_at) / Fold change /veh HIST1H1D (11736915_at) / RFU CASKIN2 (11723855_a_at) / Fold change /veh CASKIN2 (11723855_a_at) / RFU LOC730098 (11760151_x_at) / Fold change /veh LOC730098 (11760151_x_at) / RFU OR4N2 (11742367_at) / Fold change /veh OR4N2 (11742367_at) / RFU PRRT2 (11749266_a_at) / Fold change /veh PRRT2 (11749266_a_at) / RFU SNX32 (11753110_a_at) / Fold change /veh SNX32 (11753110_a_at) / RFU CDHR5 (11726645_a_at) / Fold change /veh CDHR5 (11726645_a_at) / RFU RCAN1 (11760418_a_at) / Fold change /veh RCAN1 (11760418_a_at) / RFU FAM167A (11723789_a_at) / Fold change /veh FAM167A (11723789_a_at) / RFU FAM26E (11764081_at) / Fold change /veh FAM26E (11764081_at) / RFU ISYNA1 (11749810_s_at) / Fold change /veh ISYNA1 (11749810_s_at) / RFU ACY1 (11761880_at) / Fold change /veh ACY1 (11761880_at) / RFU 11764098_at / Fold change /veh 11764098_at / RFU SAMD14 (11745864_x_at) / Fold change /veh SAMD14 (11745864_x_at) / RFU NPB (11741838_a_at) / Fold change /veh NPB (11741838_a_at) / RFU TMPRSS6 (11731388_a_at) / Fold change /veh TMPRSS6 (11731388_a_at) / RFU KRTAP10-2 (11738614_at) / Fold change /veh KRTAP10-2 (11738614_at) / RFU ARHGAP8 /// PRR5-ARHGAP8 (11727945_x_at) / Fold change /veh ARHGAP8 /// PRR5-ARHGAP8 (11727945_x_at) / RFU KRTAP5-7 /// NADSYN1 (11734609_at) / Fold change /veh KRTAP5-7 /// NADSYN1 (11734609_at) / RFU RASL12 (11751679_a_at) / Fold change /veh RASL12 (11751679_a_at) / RFU CDKN2B (11736163_a_at) / Fold change /veh CDKN2B (11736163_a_at) / RFU PRF1 (11729649_at) / Fold change /veh PRF1 (11729649_at) / RFU, ZNF638 /// ZNF638-IT1 / Fold change vs veh, ZNF638 /// ZNF638-IT1 / RFU, PANK3 / Fold change vs veh, PANK3 / RFU, SH3YL1 / Fold change vs veh, SH3YL1 / RFU, ZEB2 / Fold change vs veh, ZEB2 / RFU, NRIP1 / Fold change vs veh, NRIP1 / RFU, PTTG1IP / Fold change vs veh, PTTG1IP / RFU, CAPN2 / Fold change vs veh, CAPN2 / RFU, MED14 / Fold change vs veh, MED14 / RFU, SNORA58 / Fold change vs veh, SNORA58 / RFU, C1orf63 / Fold change vs veh, C1orf63 / RFU, LRRFIP1 / Fold change vs veh, LRRFIP1 / RFU, NDUFAF7 / Fold change vs veh, NDUFAF7 / RFU, SLC12A2 / Fold change vs veh, SLC12A2 / RFU, IBTK / Fold change vs veh, IBTK / RFU, ESF1 / Fold change vs veh, ESF1 / Fold change vs veh, TMEM50B / RFU, TAOK1 / Fold change vs veh, TAOK1 / RFU, ACBD3 / Fold change vs veh, ACBD3 / RFU, TMA16 / Fold change vs veh, TMA16 / RFU, RWDD3 / Fold change vs veh, RWDD3 / RFU, BCAT1 / Fold change vs veh, BCAT1 / RFU, EDEM3 / Fold change vs veh, EDEM3 / RFU, TMEM33 / Fold change vs veh, TMEM33 / RFU, WDR75 / Fold change vs veh, WDR75 / RFU, AHCTF1 / Fold change vs veh, AHCTF1 / RFU, TFRC / Fold change vs veh, TFRC / RFU, ZDHHC17 / Fold change vs veh, ZDHHC17 / RFU, NOM1 / Fold change vs veh, NOM1 / RFU, ARL8B / Fold change vs veh, ARL8B / RFU, ZBTB11 / Fold change vs veh, ZBTB11 / RFU, TAMM41 / Fold change vs veh, TAMM41 / RFU, KIAA1704 /// LOC100996395 / Fold change vs veh, KIAA1704 /// LOC100996395 / RFU, ING1 / Fold change vs veh, ING1 / RFU, TRMT61B / Fold change vs veh, TRMT61B / RFU, FUBP3 / Fold change vs veh, FUBP3 / RFU, TP53 / Fold change vs veh, TP53 / RFU, TNKS2 / Fold change vs veh, TNKS2 / RFU, ZFP14 / Fold change vs veh, ZFP14 / RFU, ACTR2 / Fold change vs veh, ACTR2 / RFU, PPP3R1 / Fold change vs veh, PPP3R1 / RFU, PIK3R1 / Fold change vs veh, PIK3R1 / RFU, HNRNPA1 / Fold change vs veh, HNRNPA1 / RFU, RNF170 / Fold change vs veh, RNF170 / RFU, ZNF28 / Fold change vs veh, ZNF28 / RFU, RNGTT / Fold change vs veh, RNGTT / RFU, OGT / Fold change vs veh, OGT / RFU, BRD1 / Fold change vs veh, BRD1 / RFU, MARS / Fold change vs veh, MARS / RFU, ZNF655 / Fold change vs veh, ZNF655 / RFU, FAHD1 / Fold change vs veh, FAHD1 / RFU, BDP1 / Fold change vs veh, BDP1 / RFU, LRRCC1 / Fold change vs veh, LRRCC1 / RFU, ARID1A / Fold change vs veh, ARID1A / RFU, ZNF146 / Fold change vs veh, ZNF146 / RFU, ZNF330 / Fold change vs veh, ZNF330 / RFU, GPN3 / Fold change vs veh, GPN3 / RFU, C9orf123 / Fold change vs veh, C9orf123 / RFU, N4BP2L2 / Fold change vs veh, N4BP2L2 / RFU, ARFIP1 / Fold change vs veh, ARFIP1 / RFU, FAM179B / Fold change vs veh, FAM179B / RFU, BCL10 / Fold change vs veh, BCL10 / RFU, UHRF1BP1L / Fold change vs veh, UHRF1BP1L / RFU, BET1 / Fold change vs veh, BET1 / RFU, CNOT2 / Fold change vs veh, CNOT2 / RFU, ZNF268 / Fold change vs veh, ZNF268 / Fold change vs veh, ZNF507 / RFU, DGCR2 / Fold change vs veh, DGCR2 / RFU, WDSUB1 / Fold change vs veh, WDSUB1 / Fold change vs veh, HSP90B1 /// MIR3652 / RFU, ADSS / Fold change vs veh, ADSS / RFU, GK / Fold change vs veh, GK / RFU, ZNF148 / Fold change vs veh, ZNF148 / RFU, TAF9 / Fold change vs veh, TAF9 / RFU, SLC1A5 / Fold change vs veh, SLC1A5 / RFU, SLMO2 / Fold change vs veh, SLMO2 / RFU, ABCC4 / Fold change vs veh, ABCC4 / RFU, LOC101060439 /// RAP1B / Fold change vs veh, LOC101060439 /// RAP1B / RFU, RFX7 / Fold change vs veh, RFX7 / RFU, GTPBP10 / Fold change vs veh, GTPBP10 / RFU, CNEP1R1 / Fold change vs veh, CNEP1R1 / RFU, BIVM-ERCC5 /// ERCC5 / Fold change vs veh, BIVM-ERCC5 /// ERCC5 / RFU, ILF3 / Fold change vs veh, ILF3 / RFU 11762660_at / Fold change /veh 11762660_at / RFU VCAN (11757783_s_at) / Fold change /veh VCAN (11757783_s_at) / RFU DDX43 (11728927_at) / Fold change /veh DDX43 (11728927_at) / RFU KRT8 (11758188_x_at) / Fold change /veh KRT8 (11758188_x_at) / RFU NKD1 (11759106_at) / Fold change /veh NKD1 (11759106_at) / RFU SRD5A1 (11742802_a_at) / Fold change /veh SRD5A1 (11742802_a_at) / RFU TPSAB1 /// TPSB2 (11721975_s_at) / Fold change /veh TPSAB1 /// TPSB2 (11721975_s_at) / RFU GSTM3 (11746129_a_at) / Fold change /veh GSTM3 (11746129_a_at) / RFU IL23R (11737362_x_at) / Fold change /veh IL23R (11737362_x_at) / RFU TMEM51 (11727254_a_at) / Fold change /veh TMEM51 (11727254_a_at) / RFU PIWIL2 (11732686_x_at) / Fold change /veh PIWIL2 (11732686_x_at) / RFU ORM1 (11744905_x_at) / Fold change /veh ORM1 (11744905_x_at) / RFU CCDC152 (11743942_at) / Fold change /veh CCDC152 (11743942_at) / RFU ECM1 (11717891_a_at) / Fold change /veh ECM1 (11717891_a_at) / RFU IL23R (11748794_a_at) / Fold change /veh IL23R (11748794_a_at) / RFU TNFAIP8L3 (11732012_x_at) / Fold change /veh TNFAIP8L3 (11732012_x_at) / RFU MBOAT4 (11741988_at) / Fold change /veh MBOAT4 (11741988_at) / RFU 11764193_at / Fold change /veh 11764193_at / RFU TMEM53 (11763286_at) / Fold change /veh TMEM53 (11763286_at) / RFU MAGEB2 (11727129_at) / Fold change /veh MAGEB2 (11727129_at) / RFU TMEM200A (11744735_a_at) / Fold change /veh TMEM200A (11744735_a_at) / RFU CCDC152 (11751479_a_at) / Fold change /veh CCDC152 (11751479_a_at) / RFU FAM211A (11726209_a_at) / Fold change /veh FAM211A (11726209_a_at) / RFU RGS16 (11746705_a_at) / Fold change /veh RGS16 (11746705_a_at) / RFU VCAN (11755009_s_at) / Fold change /veh VCAN (11755009_s_at) / RFU RHOB (11743442_s_at) / Fold change /veh RHOB (11743442_s_at) / RFU RGS16 (11720943_a_at) / Fold change /veh RGS16 (11720943_a_at) / RFU RGS16 (11720944_at) / Fold change /veh RGS16 (11720944_at) / RFU, VPS4B / Fold change vs veh, VPS4B / RFU, CREB1 / Fold change vs veh, CREB1 / RFU, DNAJC13 / Fold change vs veh, DNAJC13 / RFU, GNAQ / Fold change vs veh, GNAQ / RFU, CDK5R1 / Fold change vs veh, CDK5R1 / RFU, ZRANB3 / Fold change vs veh, ZRANB3 / RFU, CUL4A / Fold change vs veh, CUL4A / RFU, CCNY / Fold change vs veh, CCNY / RFU, UFL1 / Fold change vs veh, UFL1 / RFU, COG3 / Fold change vs veh, COG3 / RFU, DIAPH2 / Fold change vs veh, DIAPH2 / RFU, SKA2 / Fold change vs veh, SKA2 / RFU, AFF3 / Fold change vs veh, AFF3 / RFU, LMF1 / Fold change vs veh, LMF1 / RFU, IPO11 / Fold change vs veh, IPO11 / RFU, DFFB / Fold change vs veh, DFFB / RFU, FOXP1 / Fold change vs veh, FOXP1 / RFU, CARD8 / Fold change vs veh, CARD8 / RFU, STRN3 / Fold change vs veh, STRN3 / RFU, ADK / Fold change vs veh, ADK / RFU, RASSF2 / Fold change vs veh, RASSF2 / RFU, WIPF1 / Fold change vs veh, WIPF1 / RFU, LARP1B / Fold change vs veh, LARP1B / RFU, RASA1 / Fold change vs veh, RASA1 / RFU, RB1 / Fold change vs veh, RB1 / RFU, PPFIA1 / Fold change vs veh, PPFIA1 / RFU, MAT2A / Fold change vs veh, MAT2A / RFU, CCT5 / Fold change vs veh, CCT5 / RFU, WDR92 / Fold change vs veh, WDR92 / RFU, CUX1 / Fold change vs veh, CUX1 / RFU, TTC7A / Fold change vs veh, TTC7A / RFU, TMEM135 / Fold change vs veh, TMEM135 / RFU, DEPTOR / Fold change vs veh, DEPTOR / RFU, CPM / Fold change vs veh, CPM / RFU, DNAJB6 / Fold change vs veh, DNAJB6 / RFU, CACNA2D3 / Fold change vs veh, CACNA2D3 / RFU, DTX4 / Fold change vs veh, DTX4 / RFU, TFCP2 / Fold change vs veh, TFCP2 / RFU, GMCL1 /// GMCL1P1 / Fold change vs veh, GMCL1 /// GMCL1P1 / RFU, AEBP2 / Fold change vs veh, AEBP2 / RFU, SNHG1 /// SNORD22 /// SNORD25 /// SNORD26 /// SNORD27 /// SNORD28 /// SNORD29 /// SNORD31 / Fold change vs veh, SNHG1 /// SNORD22 /// SNORD25 /// SNORD26 /// SNORD27 /// SNORD28 /// SNORD29 /// SNORD31 / Fold change (Aza/veh), C12orf56 (ProbeSet 11735607_a_at) / Fold change (ACY-1035/veh), C12orf56 (ProbeSet 11735607_a_at) / Fold change (Aza/veh), FGFR1OP (ProbeSet 11751329_s_at) / Fold change (ACY-1035/veh), FGFR1OP (ProbeSet 11751329_s_at) / Fold change (Aza/veh), VPS36 (ProbeSet 11739960_a_at) / Fold change (ACY-1035/veh), VPS36 (ProbeSet 11739960_a_at) / RFU SYPL1 (11715823_x_at) / Fold change /veh SYPL1 (11715823_x_at) / RFU IGFBP7 (11715501_s_at) / Fold change /veh IGFBP7 (11715501_s_at) / RFU REEP3 (11722064_at) / Fold change /veh REEP3 (11722064_at) / RFU IGLL1 (11728026_x_at) / Fold change /veh IGLL1 (11728026_x_at): dose or concentration left out as unconfirmed
# Settings: ProbeSet 11732306_x_at; LIST D
compound,measurement,value
Nc1ncn([C@@H]2O[C@H](CO)[C@@H](O)[C@H]2O)c(=O)n1 [azacitidine],"Fold change vs veh, CREB1",0.82
